Assay results from ChEMBL document CHEMBL1152415, “Potent antitumor bifunctional DNA alkylating agents, synthesis and biological activities of 3a-aza-cyclopenta[a]indenes” (Bioorg Med Chem, 2009).
Calls of active or inactive are those of the source. No cut-off for these calls is given here.

Tests used:
Nucleic Acid [1] = assay: Induction of pEGFP-N1 plasmid DNA interstrand cross-linking at 1 uM after 2 hrs by alkaline agarose gel shift assay; format: nucleic-acid assay
MX1 [2] = assay: Antitumor activity in human MX1 cells xenografted athymic nu/nu mouse assessed as complete remission of tumor at 5 mg/kg, iv administered daily once for 3 days; format: functional, organism-based; set-up: dose 5 mg/kg
MX1 [3] = assay: Antitumor activity in human MX1 cells xenografted athymic nu/nu mouse assessed as complete remission of tumor at 18 mg/kg, iv administered daily twice for 2 days; format: functional, organism-based; set-up: dose 18 mg/kg
[4] = Toxicity in athymic nu/nu mouse assessed as maximum tolerated dose; format: organism-based; conditions: in vivo, read-out: Activity
Nucleic Acid [5] = assay: Induction of pEGFP-N1 plasmid DNA interstrand cross-linking at 20 uM after 2 hrs by alkaline agarose gel shift assay; format: nucleic-acid assay
HCT-116 = assay: Cytotoxicity against human HCT116 cells after 72 hrs by SRB assay; format: functional, cell-based; conditions: HCT-116, 72 h
CCRF-CEM [6] = assay: Cross-resistance, IC50 for human vinblastine-resistant CCRF-CEM cells to IC50 for human CCRF-CEM cells; format: functional
CCRF-CEM [7] = assay: Cytotoxicity against human vinblastine-resistant CCRF-CEM cells after 72 hrs by XTT assay; format: functional, cell-based
CCRF-CEM [8] = assay: Cytotoxicity against human CCRF-CEM cells after 72 hrs by XTT assay; format: functional, cell-based; conditions: read-out: IC50
CCRF-CEM [9] = assay: Cross-resistance, IC50 for human taxol-resistant CCRF-CEM cells to IC50 for human CCRF-CEM cells; format: functional
MX1 [10] = assay: Antitumor activity in human MX1 cells xenografted athymic nu/nu mouse assessed as complete remission of tumor at 15 mg/kg, iv administered daily twice for 4 days measured after 18 days of tumor implantation; format: functional, organism-based; set-up: dose 15 mg/kg
MX1 [11] = assay: Antitumor activity in human MX1 cells xenografted athymic nu/nu mouse assessed as complete remission of tumor at 50 mg/kg, iv administered daily once for 3 days; format: functional, organism-based; set-up: dose 50 mg/kg
MX1 [12] = assay: Antitumor activity in human MX1 cells xenografted athymic nu/nu mouse assessed as complete remission of tumor at 15 mg/kg, iv administered daily twice for 4 days; format: functional, organism-based; set-up: dose 15 mg/kg
CCRF-CEM [13] = assay: Cytotoxicity against human taxol-resistant CCRF-CEM cells after 72 hrs by XTT assay; format: functional, cell-based
MX1 [14] = assay: Cytotoxicity against human MX1 cells after 72 hrs by SRB assay; format: functional, cell-based; conditions: MX1, 72 h
Nucleic Acid [15] = assay: Induction of pEGFP-N1 plasmid DNA interstrand cross-linking at 10 uM after 2 hrs by alkaline agarose gel shift assay; format: nucleic-acid assay
SK-OV-3 [16] = assay: Antitumor activity in human SKOV3 cells xenografted athymic nu/nu mouse assessed as tumor suppression at 50 mg/kg, iv administered daily once for 3 days measured after 22 days relative to control; format: functional
[17] = Cytotoxicity against human U87 cells after 72 hrs by WST-1 assay; format: functional, cell-based, U-87MG ATCC; conditions: U-87 MG
PC-3 [18] = assay: Cytotoxicity against human PC3 cells after 72 hrs by WST-1 assay; format: functional, cell-based; conditions: PC-3, 72 h
MX1 [19] = assay: Antitumor activity in human MX1 cells xenografted athymic nu/nu mouse assessed as tumor re-growth at 50 mg/kg, iv administered daily once for 3 days measured after 24 days of tumor implantation; format: functional, organism-based; set-up: dose 50 mg/kg
[20] = Cytotoxicity against human OECM1 cells after 72 hrs by WST-1 assay; format: functional, cell-based; conditions: OECM1, 72 h
[21] = Cytotoxicity against human H1299 cells after 72 hrs by WST-1 assay; format: functional, cell-based; conditions: NCI-H1299, 72 h
PC-3 [22] = assay: Antitumor activity in human PC3 cells xenografted athymic nu/nu mouse assessed as complete tumor suppression at 50 mg/kg, iv administered daily once for 4 days measured after day 14 to day 32; format: functional, organism-based; set-up: dose 50 mg/kg
MX1 [23] = assay: Antitumor activity in human MX1 cells xenografted athymic nu/nu mouse assessed as complete remission of tumor at 50 mg/kg, iv administered daily once for 3 days measured after 24 days of tumor implantation; format: functional, organism-based; set-up: dose 50 mg/kg
Mus musculus = assay: Toxicity in human PC3 cells xenografted athymic nu/nu mouse assessed as weight loss at 50 mg/kg, iv administered daily once for 4 days measured after day 14 to day 32 relative to control; format: organism-based, PC-3; set-up: dose 50 mg/kg, route intravenous; conditions: in vivo, 96 h
MX1 [24] = assay: Antitumor activity in human MX1 cells xenografted athymic nu/nu mouse assessed as tumor re-growth at 18 mg/kg, iv administered daily twice for 2 days measured after 40 days of tumor implantation; format: functional, organism-based; set-up: dose 18 mg/kg
SK-OV-3 [25] = assay: Antitumor activity in human SKOV3 cells xenografted athymic nu/nu mouse assessed as tumor suppression at 20 mg/kg, iv administered daily once for 4 days measured after 22 days relative to control; format: functional
MX1 [26] = assay: Antitumor activity in human MX1 cells xenografted athymic nu/nu mouse assessed as complete remission of tumor at 5 mg/kg, iv administered daily once for 3 days measured after 22 days of tumor implantation; format: functional, organism-based; set-up: dose 5 mg/kg

Compound | Activity (Nucleic Acid [1]) | Activity (MX1 [2]) | Activity (MX1 [3]) | MTD [4] | Activity (Nucleic Acid [5]) | IC50 (HCT-116) | Ratio IC50 (CCRF-CEM [6]) | IC50 (CCRF-CEM [7]) | IC50 (CCRF-CEM [8]) | Ratio IC50 (CCRF-CEM [9]) | Activity (MX1 [11]) | Activity (MX1 [12]) | IC50 (CCRF-CEM [13]) | IC50 (MX1 [14]) | Activity (Nucleic Acid [15]) | IC50 [17] | IC50 (PC-3 [18]) | IC50 [20] | IC50 [21] | also measured
CNC(=O)OCc1c(COC(=O)NC)c(-c2ccccc2OC)n2c1Cc1ccccc1-2 | Active | Active | Active | 15 mg/kg | Active | 150 nM | 2.7 | 360 nM | 140 nM | 1.8 | Active | Active | 250 nM | 1300 nM | Active |  |  |  |  | Activity (MX1 [10]): Active
CCc1c(CO)c(CO)c2n1-c1ccccc1C2 | Active | Active | Active | 50 mg/kg | Active | 830 nM | 0.64 | 230 nM | 360 nM | 0.39 | Active | Active | 140 nM | 1100 nM | Active | 18200 nM | 16600 nM | 1240 nM | 14100 nM | Activity (SK-OV-3 [16]): 78%; Activity (MX1 [19]): inactive; Activity (PC-3 [22]): Active; Activity (MX1 [23]): Active; Activity (Mus musculus): 15%
Cc1c(CO)c(CO)c2n1-c1ccccc1C2 | Active | Active | Active | 18 mg/kg | Active | 340 nM |  | 67 nM | 10 nM |  | Active | Active | 32 nM | 360 nM | Active | 19300 nM | 19700 nM | 860 nM | 15200 nM | Activity (MX1 [24]): inactive; Activity (SK-OV-3 [25]): 53%
CNC(=O)OCc1c(COC(=O)NC)c(-c2ccc(OC)cc2)n2c1Cc1ccccc1-2 | Active | Active | Active | 5 mg/kg | Active | 2600 nM | 1.3 | 63 nM | 49 nM | 1.4 | Active | Active | 70 nM | 1900 nM | Active | 34400 nM | 38200 nM | 4630 nM | 42600 nM | Activity (MX1 [26]): Active
